Tests used:
[1] = tested on: T29 cells; experiment: Internucleosomal DNA fragmentation (low molecular weight DNA of nucleoplasm, agarose gel); assay type: cell-based, murine; settings: T29 cells, 2.5, 5, 10, and 20 μM, 24 hours
Source text: Extraction of nuclei in buffer I (prepared as above) from viable cells results in the recovery of chromatin-free nucleoplasm. However, during cell death when DNA fragmentation occurs, the low molecular weight DNA fragments are recovered in the nucleoplasm. Consequently, supernatant of nuclear extracts from cells undergoing programmed cell death contain low molecular weight DNA fragments, whereas the pellet of the nuclear extracts contain the high molecular weight chromatin. By this experimental approach, DNA fragmentation could be analyzed without interference of the bulky DNA [51]. […] The DNA pellet was resuspended in electrophoresis buffer (10 mM Tris-HCI, pH 8.0, 1 mM EDTA) and analyzed by electrophoresis on 1.5% agarose gels containing […] ethydium bromide.
Figure 7 HB-19 and related multivalent Nucant pseudopeptides induce cell death associated with internucleosomal DNA fragmentation. […] Cell cultures (in triplicate) were monitored for viable cell number daily for 3 days. […] T29 cells seeded at 100,000/ml in 2 ml in the absence (0 μM) or presence of N7 at various concentrations 2.5, 5, 10 and 20 μM were cultured for 3 days and the number of viable cells was determined at day 1, 2, and 3 post-seeding. […] The nuclear extracts were analyzed by immunoblotting using anti-Nt Ab (Methods). […]

[2] = tested on: nucleophosmin; experiment: mRNA expression by RT-PCR in SW620 cells; assay type: cell-based, human; settings: SW620, 10 μM, 24, 48 and 72 hours
Procedure: (§1) SW620 cells were cultured in the absence or presence of N7 before extraction for total RNA using RNeasy Mini Kit (Qiagen) according to the manufacturer's instructions. RT was carried out with oligo(dT) and 2-4 μg of total RNA using Superscript II Reverse Transcriptase (Invitrogen). PCR was performed in a RoboCycler 96 (Stratagene, La Jolla, CA, USA) with specific primers for human nucleolin (referred to as NCL) 5'-[…]-3' and 5'-[…]-3' (835 bp); glyceraldehyde-3-phosphate dehydrogenase (GAPDH) 5'-TGAAGG-[…]-3' and 5'-[…]-CCAC-3' (983 bp); nucleophosmin (NPM or B23) 5'-[…]-3' and 5'-[…]-3' (320 bp); matrix metalloproteinase-2 (MMP-2) 5'-[…]-3' and 5'-[…]-3' (580 bp); matrix metalloproteinase-9 (MMP-9) 5'-[…] TCAGAGC-3' and 5'-[…]-3' (243 bp); tissue inhibitor of metalloproteinase 1 (TIMP-1) 5'-[…]-3' and 5'-[…]-3' (667 bp); tissue inhibitor of metalloproteinase 2 (TIMP-2) 5'-[…]-3' and 5'-[…]-3' (405 bp). PCR amplification conditions were: 95°C for 5 min, 30 cycles at 95°C for 30 sec, 60°C for 30 sec and 72°C for 45 sec, and 72°C for 5 min (for NCL and GAPDH), 95°C for 5 min, 30 cycles at 95°C for 30 sec, 53°C for 30 sec and 72°C for 30 sec, and 72°C for 5 min (for NPM); 95°C for 5 min, 35 cycles at 95°C for 45 sec, 56°C for 45 sec and 72°C for 45 sec, and 72°C for 5 min (for MMP2 and MMP9); 95°C for 5 min, 30 cycles at 95°C for 45 sec, 59°C for 1 min and 72°C for 1 min 30 sec, and 72°C for 5 min (for TIMP1 and TIMP2).
(§2) Figure 6 Selective down regulation of MMP-9 and nucleolin transcripts in Nucant treated SW620 cells. A. SW620 cells in the absence (lanes -) and presence (lanes +) of 10 μM of N7 were cultured for 24, 48, and 72 hours. B. Dose dependent reduction of MMP-9 and nucleolin transcripts in response to Nucant treatment. Newly seeded SW620 cells were cultured in the absence (lanes 1) and presence of 2.5 (lanes 2), 5 (lanes 3) and 10 (lanes 4) […] of N6 for 20 hours. Total RNA extracts were prepared at different time points and the expression of various transcripts was analyzed by RT-PCR using specific primers (Methods). […]

[3] = tested on: MMP-9; experiment: mRNA expression by RT-PCR in SW620 cells; assay type: cell-based, human; settings: SW620, 10 μM, 24 hours post-seeding
Procedure: as §1, §2

[4] = tested on: nucleolin; experiment: mRNA expression by RT-PCR in SW620 cells; assay type: cell-based, human; settings: SW620, 10 μM, 24, 48 and 72 hours
Procedure: as §1, §2

Substance | DNA fragmentation [1] | expression of transcripts coding nucleophosmin [2] | expression of MMP-9 transcripts [3] | transcripts coding nucleolin [4]
Ac-Lys-Aib-Gly-Lys-Aib-Gly-Lys-Aib-Gly-Lys-Aib-Gly-Lys-Aib-Gly-Lys-Aib-Gly-CONH2 [Nucant N6, Presents hexavalently the pseudo-tripeptide Lysψ(CH2N)-Pro-Arg coupled to the polypeptide template containing Aib] | Internucleosomal DNA cleavage |  |  | 
Ac-KAKPGKAKPGKAKPG-NH2 [Nucant N7, Presents hexavalently the pseudo-tripeptide Lysψ(CH2N)-Pro-Arg coupled to a similar template as in HB-19] |  | not affected | completely abolished | marked down regulation

From publication PMC3199867, “Targeting surface nucleolin with multivalent HB-19 and related Nucant pseudopeptides results in distinct inhibitory mechanisms depending on the malignant tumor cell type” (BMC Cancer, 2011)
